Test results from patent publication US11969433B2, “Compositions and methods for muscle regeneration using prostaglandin E2” (The Board of Trustees of the Leland Stanford Junior …, priority 2016, dated 2024).

How the values were obtained:
[1] = system: aged MuSCs; assay: Aged MuSC numbers after acute 24 hr treatment, hydrogel culture; assay type: cell-based, mouse; settings: 1-day pulse; PGE2 10 ng/ml or SW033291 1 μM; assayed day 7
Procedure: (§1) Following isolation, we resuspended MuSCs in myogenic cell culture medium containing DMEM/F10 (50:50), 15% FBS, 2.5 ng ml^−1 fibroblast growth factor-2 (FGF-2 also known as bFGF) and 1% penicillin-streptomycin. We seeded MuSC suspensions at a density of 500 cells per cm^2 surface area. We maintained cell cultures at 37° C. in 5% CO2 and changed medium daily. […]
(§2) To assay proliferation, we used three different assays (hemocytometer, VisionBlue, and EdU). […] For hemocytometer cell number count, we collected cells at indicated timepoints by incubation with 0.5% trypsin in PBS for 5 min at 37° C. and quantified them using a hemocytometer at least 3 times. Additionally, we used the VisionBlue Quick Cell Viability Fluorometric Assay Kit (BioVision, catalog #K303) as a readout for cell growth in culture. Briefly, we incubated MuSCs with 10% VisionBlue in culture medium for 3 h, and measured fluorescence intensity on a fluorescence plate reader (Infinite M1000 PRO, Tecan) at Ex=530-570 nm, Em=590-620 nm. […] We quantified EdU positive cells using the MetaMorph Image Analysis software (Molecular Devices). Data analyses were blinded, where researchers performing cell scoring were unaware of the treatment condition given to sample groups analyzed.

[2] = system: MuSCs; assay: VisionBlue metabolic viability assay; assay type: cell-based, mouse; settings: PGE2 1-200 ng/ml
Procedure: (§3) To assay proliferation, we used three different assays (hemocytometer, VisionBlue, and EdU). For each, we seeded MuSCs on flat hydrogels (hemocytometer and VisionBlue) or collagen-coated plates (EdU assay) at a density of 500 cells per cm^2 surface area. For hemocytometer cell number count, we collected cells at indicated timepoints by incubation with 0.5% trypsin in PBS for 5 min at 37° C. and quantified them using a hemocytometer at least 3 times. Additionally, we used the VisionBlue Quick Cell Viability Fluorometric Assay Kit (BioVision, catalog #K303) as a readout for cell growth in culture. Briefly, we incubated MuSCs with 10% VisionBlue in culture medium for 3 h, and measured fluorescence intensity on a fluorescence plate reader (Infinite M1000 PRO, Tecan) at Ex=530-570 nm, Em=590-620 nm. We assayed proliferation using the Click-iT EdU Alexa Fluor 555 Imaging kit (Life Technologies). Briefly, we incubated live cells with EdU (20 μM) for 1 hr prior to fixation, and stained nuclei according to the manufacturer's guidelines together with anti-MYOGENIN (Santa Cruz, catalog #sc576, 1:250) to assay differentiation. […] We quantified EdU positive cells using the MetaMorph Image Analysis software (Molecular Devices). Data analyses were blinded, where researchers performing cell scoring were unaware of the treatment condition given to sample groups analyzed.

[3] = system: MuSCs; assay: Young MuSC numbers after acute PGE2 treatment, hydrogel culture (hemocytometer count); assay type: cell-based, mouse; settings: young MuSCs, acute 1-day exposure, PGE2 10 ng/ml, one week later
Procedure: as §1, §2

[4] = system: MuSCs; assay: MuSC transplantation into injured TA muscle, engraftment by bioluminescence imaging; assay type: in vivo, mouse; settings: cultured MuSCs, acute 1-day PGE2, 250 cells transplanted day 7 into NOD-SCID mice
[5] = system: MuSCs; assay: EdU incorporation proliferation assay; assay type: cell-based, mouse; settings: young MuSCs, PGE2 10 ng/ml
Procedure: as §3

[6] = system: MuSCs; assay: MuSC proliferation in charcoal stripped serum medium; assay type: cell-based, mouse; settings: PGE2 10 ng/ml every two days, 7 days
Procedure: as §1, §2

CCCCC[C@H](O)/C=C/[C@H]1[C@H](O)CC(=O)[C@@H]1C/C=C\CCCC(=O)O [PGE2, prostaglandin E2]
proliferation of aged MuSCs [1]: increase | proliferation measured by VisionBlue [2]: Increase | increase in the number of MuSCs relative to controls [3]: 6 fold | young MuSC regenerative capacity assessed by BLI [4]: enhanced by an order of magnitude | cell division assayed by EDU incorporation [5]: increased | proliferation of aged MuSCs in charcoal stripped serum medium ([6]; aged MuSCs): rescued | division of growth arrested MuSCs in charcoal stripped serum medium ([6]; young MuSCs): divided
